Assay results: patent publication US8263605B2, “Modulators of muscarinic receptors” (Vertex Pharmaceutical Incorporated, priority 2006, dated 2012)

What was measured:
[1] = molecular target: T1, M1 muscarinic receptor (Homo sapiens, UniProt P11229); assay: Functional mobilization of intracellular calcium (FLIPR), M1-CHO cells; type: cell-based; conditions: for Emax: 100% efficacy is the maximum response obtained with the Carbachol control; for M1 Activity: CHO cells expressing M1, calcium mobilization
T1 construct: expressed in transfected cells; host or cells: CHO (M1-CHO)
T1 sequence (P11229 1-460): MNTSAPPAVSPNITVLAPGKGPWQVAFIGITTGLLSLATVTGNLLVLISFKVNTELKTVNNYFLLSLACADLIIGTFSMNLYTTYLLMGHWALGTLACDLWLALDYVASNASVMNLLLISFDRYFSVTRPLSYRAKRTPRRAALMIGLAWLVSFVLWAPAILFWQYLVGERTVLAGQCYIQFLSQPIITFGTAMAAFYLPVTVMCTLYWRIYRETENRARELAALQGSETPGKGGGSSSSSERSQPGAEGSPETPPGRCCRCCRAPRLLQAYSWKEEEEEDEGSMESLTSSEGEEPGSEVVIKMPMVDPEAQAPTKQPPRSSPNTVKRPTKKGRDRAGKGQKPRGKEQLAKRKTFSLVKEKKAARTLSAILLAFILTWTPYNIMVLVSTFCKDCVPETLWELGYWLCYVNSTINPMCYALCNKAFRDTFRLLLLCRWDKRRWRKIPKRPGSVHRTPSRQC
Outline: (§1)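 Recombinant CHO cells loaded with Fluo-3 AM or Calcium 3 dye; fluorescence recorded 60 s on FLIPR in pH 7.4 buffer with 1 mM probenecid, 0.5% DMSO. Agonist mode: compound alone; antagonist mode: 15 min preincubation (or co-application) then carbachol at EC80. Efficacy relative to maximal carbachol response.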

[2] = molecular target: T2, M4 muscarinic receptor (Homo sapiens, UniProt P08173); assay: Functional mobilization of intracellular calcium (FLIPR), M4-CHO cells; type: cell-based; conditions: for Emax: 100% efficacy is the maximum response obtained with the Carbachol control; for M4 Activity: CHO cells expressing M4, calcium mobilization
T2 construct: expressed in transfected cells; host or cells: CHO (M4-CHO)
T2 sequence (P08173 1-479): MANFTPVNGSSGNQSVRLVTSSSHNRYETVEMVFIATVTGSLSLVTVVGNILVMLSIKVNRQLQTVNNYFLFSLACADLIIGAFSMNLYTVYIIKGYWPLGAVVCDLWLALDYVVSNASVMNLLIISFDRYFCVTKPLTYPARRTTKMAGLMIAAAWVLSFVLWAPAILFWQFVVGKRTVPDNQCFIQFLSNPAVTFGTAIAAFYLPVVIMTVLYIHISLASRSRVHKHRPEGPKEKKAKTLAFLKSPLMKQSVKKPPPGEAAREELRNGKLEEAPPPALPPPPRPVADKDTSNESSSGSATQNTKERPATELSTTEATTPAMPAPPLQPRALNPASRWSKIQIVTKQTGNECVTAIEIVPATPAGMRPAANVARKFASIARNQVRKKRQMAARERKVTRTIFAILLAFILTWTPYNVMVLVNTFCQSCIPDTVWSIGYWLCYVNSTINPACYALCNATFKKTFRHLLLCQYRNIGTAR
Outline: as §1

CCOC(=O)N1CCCC(N2CCC3(CC2)CN(C(=O)N(C)C)c2ccccc23)CC1 (stereo not shown) [compound 68]
Emax [1]: 25 to 100% | M1 Activity [1]: +++ (activity was measured to be less than 2.0 μM) | Emax [2]: > 100% | M4 Activity [2]: +++ (activity was measured to be less than 2.0 μM)

CCCOC(=O)N1CCCC(N2CCC3(CC2)CN(C(=O)N(C)C)c2ccccc23)CC1 (stereo not shown) [compound 69]
Emax [1]: 25 to 100% | M1 Activity [1]: +++ (activity was measured to be less than 2.0 μM) | Emax [2]: 25 to 100% | M4 Activity [2]: +++ (activity was measured to be less than 2.0 μM)

CC(C)OC(=O)N1CCCC(N2CCC3(CC2)CN(C(=O)N(C)C)c2ccccc23)CC1 (stereo not shown) [compound 70]
Emax [1]: 25 to 100% | M1 Activity [1]: ++ (activity was measured to be from 2.0 μM to 10.0 μM) | Emax [2]: 25 to 100% | M4 Activity [2]: +++ (activity was measured to be less than 2.0 μM)

CN(C)C(=O)N1CC2(CCN(C3CCCN(C(=O)OCC(F)F)CC3)CC2)c2ccccc21 (stereo not shown) [compound 71]
Emax [1]: 25 to 100% | M1 Activity [1]: +++ (activity was measured to be less than 2.0 μM) | Emax [2]: 25 to 100% | M4 Activity [2]: +++ (activity was measured to be less than 2.0 μM)

COCCOC(=O)N1CCCC(N2CCC3(CC2)CN(C(=O)N(C)C)c2ccccc23)CC1 (stereo not shown) [compound 72]
Emax [1]: 25 to 100% | M1 Activity [1]: +++ (activity was measured to be less than 2.0 μM) | Emax [2]: 25 to 100% | M4 Activity [2]: +++ (activity was measured to be less than 2.0 μM)

CN(C)C(=O)N1CC2(CCN(C3CCCN(C(=O)O[C@@H]4CCOC4)CC3)CC2)c2ccccc21 (stereo partly shown) [compound 73]
Emax [1]: < 25% | M1 Activity [1]: ++ (activity was measured to be from 2.0 μM to 10.0 μM) | Emax [2]: 25 to 100% | M4 Activity [2]: +++ (activity was measured to be less than 2.0 μM)

Cc1nsc(C2CCC(N3CCC4(CC3)CN(C(=O)N(C)C)c3ccccc34)CC2)n1 (stereo not shown) [compound 74]
Emax [1]: 25 to 100% | M1 Activity [1]: +++ (activity was measured to be less than 2.0 μM) | Emax [2]: 25 to 100% | M4 Activity [2]: +++ (activity was measured to be less than 2.0 μM)

CN(C)C(=O)N1CC2(CCN(C3CCN(c4ncns4)CC3)CC2)c2ccccc21 [compound 75]
Emax [1]: 25 to 100% | M1 Activity [1]: ++ (activity was measured to be from 2.0 μM to 10.0 μM) | Emax [2]: 25 to 100% | M4 Activity [2]: +++ (activity was measured to be less than 2.0 μM)

CCc1nsc(N2CCC(N3CCC4(CC3)CN(C(=O)N(C)C)c3ccccc34)CC2)n1 [compound 76]
Emax [1]: > 100% | M1 Activity [1]: +++ (activity was measured to be less than 2.0 μM) | Emax [2]: > 100% | M4 Activity [2]: +++ (activity was measured to be less than 2.0 μM)

CN(C)C(=O)N1CC2(CCN(C3CCN(c4cncc(Cl)n4)CC3)CC2)c2ccccc21 [compound 77]
Emax [1]: 25 to 100% | M1 Activity [1]: +++ (activity was measured to be less than 2.0 μM) | Emax [2]: 25 to 100% | M4 Activity [2]: +++ (activity was measured to be less than 2.0 μM)

CN(C)C(=O)N1CC2(CCN(C3CCN(c4cnc5ccccc5n4)CC3)CC2)c2ccccc21 [compound 78]
Emax [1]: 25 to 100% | M1 Activity [1]: +++ (activity was measured to be less than 2.0 μM) | Emax [2]: 25 to 100% | M4 Activity [2]: +++ (activity was measured to be less than 2.0 μM)

Cc1cncc(N2CCC(N3CCC4(CC3)CN(C(=O)N(C)C)c3ccccc34)CC2)n1 [compound 79]
Emax [1]: 25 to 100% | M1 Activity [1]: +++ (activity was measured to be less than 2.0 μM) | Emax [2]: 25 to 100% | M4 Activity [2]: +++ (activity was measured to be less than 2.0 μM)

COC(=O)N1CCCC(N2CCC3(CC2)CN(C(=O)N(C)C)c2ccccc23)CCC1 [compound 80]
Emax [1]: 25 to 100% | M1 Activity [1]: +++ (activity was measured to be less than 2.0 μM) | Emax [2]: > 100% | M4 Activity [2]: +++ (activity was measured to be less than 2.0 μM)

CCOC(=O)N1CCC(C)(N2CCC3(CC2)CN(C(=O)N(C)C)c2ccccc23)CC1 [compound 81]
Emax [1]: 25 to 100% | M1 Activity [1]: +++ (activity was measured to be less than 2.0 μM) | Emax [2]: 25 to 100% | M4 Activity [2]: +++ (activity was measured to be less than 2.0 μM)

CN(C)C(=O)N1CC2(CCN(C3(C)CCN(c4cnccn4)CC3)CC2)c2ccccc21 [compound 82]
Emax [1]: 25 to 100% | M1 Activity [1]: ++ (activity was measured to be from 2.0 μM to 10.0 μM) | Emax [2]: 25 to 100% | M4 Activity [2]: +++ (activity was measured to be less than 2.0 μM)

Cc1nsc(N2CC[C@H](CN3CCC4(CC3)CN(C(=O)N(C)C)c3ccccc34)C2)n1 [compound 83]
Emax [1]: 25 to 100% | M1 Activity [1]: ++ (activity was measured to be from 2.0 μM to 10.0 μM) | Emax [2]: 25 to 100% | M4 Activity [2]: +++ (activity was measured to be less than 2.0 μM)

CCc1nsc(N2CC[C@H](CN3CCC4(CC3)CN(C(=O)N(C)C)c3ccccc34)C2)n1 [compound 84]
Emax [1]: 25 to 100% | M1 Activity [1]: +++ (activity was measured to be less than 2.0 μM) | Emax [2]: 25 to 100% | M4 Activity [2]: +++ (activity was measured to be less than 2.0 μM)

Cc1nsc(N2CC[C@@H](CN3CCC4(CC3)CN(C(=O)N(C)C)c3ccccc34)C2)n1 [compound 85]
Emax [1]: 25 to 100% | M1 Activity [1]: +++ (activity was measured to be less than 2.0 μM) | Emax [2]: > 100% | M4 Activity [2]: +++ (activity was measured to be less than 2.0 μM)

CCc1nsc(N2CC[C@@H](CN3CCC4(CC3)CN(C(=O)N(C)C)c3ccccc34)C2)n1 [compound 86]
Emax [1]: 25 to 100% | M1 Activity [1]: +++ (activity was measured to be less than 2.0 μM) | Emax [2]: 25 to 100% | M4 Activity [2]: +++ (activity was measured to be less than 2.0 μM)

Cc1ncc(N2CC[C@H](CN3CCC4(CC3)CN(C(=O)N(C)C)c3ccccc34)C2)nc1C [compound 87]
Emax [1]: < 25% | M1 Activity [1]: + (activity was measured to be greater than 10.0 μM) | Emax [2]: 25 to 100% | M4 Activity [2]: +++ (activity was measured to be less than 2.0 μM)

Cc1ncc(N2CCC(N3CCC4(CC3)CN(C(=O)N(C)C)c3ccccc34)CC2)nc1C [compound 88]
Emax [1]: 25 to 100% | M1 Activity [1]: ++ (activity was measured to be from 2.0 μM to 10.0 μM) | Emax [2]: 25 to 100% | M4 Activity [2]: +++ (activity was measured to be less than 2.0 μM)

CN(C)C(=O)N1CC2(CCN(C3CCN(c4nncs4)CC3)CC2)c2ccccc21 [compound 89]
Emax [1]: < 25% | M1 Activity [1]: ++ (activity was measured to be from 2.0 μM to 10.0 μM) | Emax [2]: 25 to 100% | M4 Activity [2]: ++ (activity was measured to be from 2.0 μM to 10.0 μM)

CN(C)C(=O)N1CC2(CCN(C3CCN(c4nccs4)CC3)CC2)c2ccccc21 [compound 90]
Emax [1]: 25 to 100% | M1 Activity [1]: ++ (activity was measured to be from 2.0 μM to 10.0 μM) | Emax [2]: 25 to 100% | M4 Activity [2]: ++ (activity was measured to be from 2.0 μM to 10.0 μM)

Cc1csc(N2CCC(N3CCC4(CC3)CN(C(=O)N(C)C)c3ccccc34)CC2)n1 [compound 91]
Emax [1]: 25 to 100% | M1 Activity [1]: ++ (activity was measured to be from 2.0 μM to 10.0 μM) | Emax [2]: 25 to 100% | M4 Activity [2]: +++ (activity was measured to be less than 2.0 μM)

C#CCOC(=O)N1CCC(N2CCC3(CC2)CN(C(=O)N(C)C)c2ccccc23)CC1 [compound 92]
Emax [1]: > 100% | M1 Activity [1]: +++ (activity was measured to be less than 2.0 μM) | Emax [2]: > 100% | M4 Activity [2]: +++ (activity was measured to be less than 2.0 μM)

CCC#CCOC(=O)N1CCC(N2CCC3(CC2)CN(C(=O)N(C)C)c2ccccc23)CC1 [compound 93]
Emax [1]: 25 to 100% | M1 Activity [1]: +++ (activity was measured to be less than 2.0 μM) | Emax [2]: 25 to 100% | M4 Activity [2]: +++ (activity was measured to be less than 2.0 μM)

C#CCOC(=O)N1C2CCC1CC(N1CCC3(CC1)CN(C(=O)N(C)C)c1ccccc13)C2 (stereo not shown) [compound 94]
Emax [1]: 25 to 100% | M1 Activity [1]: +++ (activity was measured to be less than 2.0 μM) | Emax [2]: 25 to 100% | M4 Activity [2]: +++ (activity was measured to be less than 2.0 μM)

CC#CCOC(=O)N1C2CCC1CC(N1CCC3(CC1)CN(C(=O)N(C)C)c1ccccc13)C2 (stereo not shown) [compound 95]
Emax [1]: 25 to 100% | M1 Activity [1]: +++ (activity was measured to be less than 2.0 μM) | Emax [2]: 25 to 100% | M4 Activity [2]: +++ (activity was measured to be less than 2.0 μM)
